# Patent US8124766B2, “Inhibitors of diacylglycerol acyltransferase” (Madrigal Pharmaceuticals, Inc., priority 2008, dated 2012)
# Structures can show the parent of a compound that is named as a salt.
# Test system: DGAT
# Test: DGAT Phospholipid FlashPlate Assay
# Assay type: biochemical
# Details: DGAT pellet, DAG-coated PL-FlashPlate, 14C-Pal-CoA, 37° C. for 1 hour; read-out: DGAT Inhibition Activity IC50
# Experimental: DGAT Phospholipid FlashPlate Assay
# Materials for the assay were: PL-FlashPlate: Phospholipid FlashPlates from PerkinElmer, catalog number SMP108; DAG (1,2-Dioleoyl-sn-glycerol) 10 mM suspended in water containing 0.1% Triton X-100; ^14C-Pal-CoA (palmitoyl coenzyme A, [palmitoyl-1-^14C]) from PerkinElmer, catalog number NEC-555 with a specific activity of 55 mCi/mmol; and DGAT pellet, with a protein concentration of 9.85 mg/ml.
# Aqueous buffers were prepared or purchased as follows: The coating buffer (CB) was purchased from PerkinElmer, catalog number SMP900A; the reaction buffer (RB) was 50 mM Tris-HCl, pH 7.5, 100 mM NaCl, 0.01% BSA in water; the washing buffer (WB) is 50 mM Tris-HCl, pH 7.5, 100 mM NaCl, 0.05% deoxycholic acid sodium salt in water; the dilution buffer (DB) was 50 mM Tris-HCl, pH 7.5, 100 mM NaCl, 1 mM EDTA, 0.2% Triton X-100 in water.
# 1,2-Dioleoyl-sn-glycerol (DAG, 10 mmoles) was diluted to 500 μM with coating buffer (CB). The diluted DAG solution was then added to 384-well PL-FlashPlates at 60 μl per well, and incubated at room temperature for 2 days. The coated plates were then washed twice with washing buffer (WB) before use. Test compounds were serial diluted to 2000, 666.7, 222.2, 74.1, 24.7, 8.2, 2.7 and 0.9 μM in 100% DMSO. Diluted compound were further diluted 10 fold with reaction buffer (RB). ^14C-Pal-CoA was diluted to 8.3 μM with RB. The DGAT pellet was diluted to 0.13 mg protein/ml with dilution buffer (DB) immediately before it was added to the PL-FlashPlates to start the reaction. 20 μl of the RB-diluted compounds (or 10% DMSO in RB for Total and Blank), 15 μl of RB diluted 14C-Pal-CoA and 15 μl of DB diluted DGAT pellet (DB without DGAT for Blanks) were transferred to each well of the PL-FlashPlates. The reaction mixtures were incubated at 37° C. for 1 hour. The reactions were stopped by washing 3 times with WB. Plates were sealed with Top-seal and read on a Topcount instrument.
# Calculation of IC50: The IC50 values for each compound were generated using an Excel template. The Topcount rpm readings of Total and Blank were used as 0% and 100% inhibition. The percent inhibition values of reactions in the presence of compounds were calculated, and plotted against compound concentrations. All data were fitted into a Dose Response One Site model (4 parameter logistic model) as the following: (A+((B−A)/(1+((x/C)^D)))), with A and B as the bottom and top of the curve (highest and lowest inhibition), respectively, and C as IC50 and D as Hill Coefficient of the compound.
row,Compound,IC50 [nM]
1,"CCCn1c(C(=O)Nc2ccc(N(C)CCOC)nc2)cc2ccccc21 [Example 41, 1-Propyl-1H-indole-2-carboxylic acid {6-[(2-methoxy-ethyl)-methyl-amino]-pyridin-3-yl}-amide hydrochloride]",937
2,"CCn1c(C(=O)Nc2ccc(N(C)CCOC)nc2)cc2cc(OC)ccc21 [Example 39, 1-Ethyl-5-methoxy-1H-indole-2-carboxylic acid {6-[(2-methoxy-ethyl)-methyl-amino]pyridin-3-yl}-amide hydrochloride]",312
3,"CCn1c(C(=O)Nc2ccc(N(C)CCOC)nc2)cc2cc(OC(F)(F)F)ccc21 [Example 33, 1-Ethyl-5-trifluoromethoxy-1H-indole-2-carboxylic acid {6-[(2-methoxy-ethyl)-methyl-amino]-pyridin-3-yl}-amide hydrochloride]",662
4,"CCn1c(C(=O)Nc2ccc(N3CCN(C(=O)OC(C)(C)C)CC3)nc2)cc2cc(Cl)ccc21 [Example 23, 4-{5-[(5-Chloro-1-ethyl-1H-indole-2-carbonyl)-amino]-pyridin-2-yl}-piperazine-1-carboxylic acid tert-butyl ester]",571
5,"CCn1c(C(=O)Nc2ccc(N3CCN(C(=O)OC(C)(C)C)CC3)nc2)cc2c(OCC(C)C)cccc21 [Example 12, 4-{5-[(1-Ethyl-4-isobutoxy-1H-indole-2-carbonyl)-amino]-pyridin-2-yl}-piperazine-1-carboxylic acid tert-butyl ester]",273
6,"CCOC(=O)N1CCC(Oc2ccc(NC(=O)c3oc4c(OCC)c(OCC)ccc4c3C)cc2)C1 (stereo not drawn) [Example 80, 3-{4-[(6,7-Diethoxy-3-methyl-benzofuran-2-carbonyl)-amino]-phenoxy}-pyrrolidine-1-carboxylic acid ethyl ester]",583
7,"CCn1c(C(=O)Nc2ccc(N3CCN(C(=O)CC(C)(C)C(=O)O)CC3)nc2)cc2c(OC)cc(OC)cc21 [Example 17, 4-(4-{5-[(1-Ethyl-4,6-dimethoxy-1H-indole-2-carbonyl)-amino]-pyridin-2-yl}-piperazin-1-yl)-2,2-dimethyl-4-oxo-butyric acid]",270
8,"CCn1c(C(=O)Nc2ccc(N3CCN(C(=O)OC(C)(C)C)CC3)cc2)cc2c(Cl)c(Cl)ccc21 [Example 59, 4-{4-[(4,5-Dichloro-1-ethyl-1H-indole-2-carbonyl)-amino]-phenyl}-piperazine-1-carboxylic acid tert-butyl ester]",821
9,"CCOC(=O)N1CC[C@H](Nc2ccc(NC(=O)c3cc4cc(C(F)(F)F)ccc4s3)cn2)C1 [Example 49, (S)-3-{5-[(5-Trifluoromethyl-benzo[b]thiophene-2-carbonyl)-amino]-pyridin-2 ylamino}-pyrrolidine-1-carboxylic acid ethyl ester hydrochloride]",594
10,"CCOc1cccc2c1cc(C(=O)Nc1ccc(N3CCN(C(=O)CC4SC(=O)NC4=O)CC3)cc1)n2CC (stereo not drawn) [Example 68, 4-Ethoxy-1-ethyl-1H-indole-2-carboxylic acid (4-{4-[2-(2,4-dioxo-thiazolidin-5-yl)-acetyl]-piperazin-1-yl}-phenyl)-amide hydrochloride]",289
11,"COCCN(C)c1ccc(NC(=O)c2oc3c(F)cccc3c2C)cn1 [Example 82, 7-Fluoro-3-methyl-benzofuran-2-carboxylic acid {6-[(2-methoxy-ethyl)-methyl-amino]pyridin-3-yl}-amide]",430
12,"COc1cccc2c(C)c(C(=O)Nc3ccc(N4CCN(C(=O)[C@H]5CCC[C@@H]5C(=O)O)CC4)cc3)[nH]c12 [Example 75, (1S,2S)-2-(4-{4-[(7-Methoxy-3-methyl-1H-indole-2-carbonyl)-amino]-phenyl}-piperazine-1-carbonyl)-cyclopentanecarboxylic acid]",372
13,"CCn1c(C(=O)Nc2ccc(N[C@H]3CCN(C(=O)NC(C)(C)C)C3)nc2)cc2c(C)cccc21 [Example 58, 1-Ethyl-4-methyl-1H-indole-2-carboxylic acid [6-((8)-1-tert-butylcarbamoyl-pyrrolidin-3-ylamino)-pyridin-3-yl]-amide hydrochloride]",247
14,"CCOC(=O)N1CC[C@H](Nc2ccc(NC(=O)c3cc4c(Cl)cccc4s3)cn2)C1 [Example 47, (S)-3-{5-[(4-Chloro-benzo[b]thiophene-2-carbonyl)-amino]pyridin-2-ylamino}-pyrrolidine-1-carboxylic acid ethyl ester hydrochloride]",280
15,CCOc1cccc2c1cc(C(=O)Nc1ccc(O[C@H]3CCN(c4ccc(C(=O)O)cc4)C3)cc1)n2CC [Example 67],296
16,"CC(C)(C)OC(=O)N1CCN(c2ccc(NC(=O)c3cc4c(Cl)cccc4s3)cn2)CC1 [Example 1, 4-{5-[(4-Chloro-benzo[b]thiophene-2-carbonyl)-amino]-pyridin-2-yl}-piperazine-1-carboxylic acid tert-butyl ester]",292
17,"CCn1c(C(=O)Nc2ccc(N(C)C3CC3)nc2)cc2cc(Cl)ccc21 [Example 45, 5-Chloro-1-ethyl-1H-indole-2-carboxylic acid [6-(cyclopropyl-methyl-amino)-pyridin-3-yl]-amide]",668
18,"CCn1c(C(=O)Nc2ccc(C3CCN(C(=O)CC(C)(C)C(=O)O)CC3)cc2)cc2c(C)cccc21 [Example 8, 4-(4-{4-[(1-Ethyl-4-methyl-4H-indole-2-carbonyl)-amino]-phenyl}-piperidin-1-yl)-2,2-dimethyl-4-oxo-butyric acid]",528

# Stronger by IC50, values ahead:
row,IC50 [nM],Compound
1,229,"CCOC(=O)N1CC[C@H](Nc2ccc(NC(=O)c3cc4c(OC)cc(OC)cc4n3CC)cn2)C1 [Example 52, (S)-3-{5-[(1-Ethyl-4,6-dimethoxy-1H-indole-2-carbonyl)-amino]-pyridin-2-ylamino}pyrrolidine-1-carboxylic acid ethyl ester]"
2,164,"CCn1c(C(=O)Nc2ccc(N3CCN(C(=O)CC(C(=O)O)C(C)C)CC3)cc2)cc2c(Cl)c(Cl)ccc21 (stereo not drawn) [Example 64, 2-[2-(4-{4-[(4,5-Dichloro-1-ethyl-1H-indole-2-carbonyl)-amino]-phenyl}-piperazin-1-yl)-2-oxo-ethyl]-3-methyl-butyric acid]"
3,161,"CCn1c(C(=O)Nc2ccc(N(C)CCOC)nc2)cc2cc(Cl)ccc21 [Example 43, 5-Chloro-1-ethyl-4H-indole-2-carboxylic acid {6-[(2-methoxy-ethyl)-methyl-amino]-pyridin-3-yl}-amide hydrochloride]"
4,145,"CC(C)(CC(=O)N1CCN(c2ccc(NC(=O)c3cc4c(Cl)cccc4s3)cc2)CC1)C(=O)O [Example 26, 4-(4-{4-[(4-Chloro-benzo[b]thiophene-2-carbonyl)-amino]-phenyl}-piperazin-1-yl)-2,2-dimethyl-4-oxo-butyric acid]"
5,102,"CCn1c(C(=O)Nc2ccc(N(C)CCOC)nc2)cc2c(OC)cccc21 [Example 38, 1-Ethyl-4-methoxy-1H-indole-2-carboxylic acid {6-[(2-methoxy-ethyl)-methyl-amino]-pyridin-3-yl}-amide hydrochloride]"
6,90,"CCOC(=O)N1CCC(Oc2ccc(NC(=O)c3[nH]c4c(OC)cccc4c3C)cc2)C1 (stereo not drawn) [Example 73, 3-{4-[(7-Methoxy-3-methyl-1H-indole-2-carbonyl)-amino]-phenoxy}-pyrrolidine-1-carboxylic acid ethyl ester]"
7,85,"CC(C)(CC(=O)N1CCN(c2ccc(NC(=O)c3cc4cc(Br)ccc4s3)cn2)CC1)C(=O)O [Example 4, 4-(4-{5-[(5-Bromo-benzo[b]thiophene-2-carbonyl)-amino]-pyridin-2-yl}-piperazin-1-yl)-2,2-dimethyl-4-oxo-butyric acid]"
8,84,"CCn1c(C(=O)Nc2ccc(N3CCN(C(=O)OC(C)(C)C)CC3)nc2)cc2c(OC)cccc21 [Example 20, 4-{5-[(1-Ethyl-4-methoxy-1H-indole-2-carbonyl)-amino]-pyridin-2-yl}-piperazine-1-carboxylic acid tert-butyl ester]"
9,57,"COc1cccc2c(C)c(C(=O)Nc3ccc(C4CCN(C(=O)[C@H]5CC[C@H](C(=O)O)CC5)CC4)cc3)[nH]c12 [Example 77, trans-4-(4-{4-[(7-Methoxy-3-methyl-1H-indole-2-carbonyl)-amino]phenyl}-piperidine-1-carbonyl)-cyclohexanecarboxylic acid]"
